Experimental data taken from ChEMBL document CHEMBL1201862, “PubChem BioAssay data set” (2004).
Active and inactive are the calls of the source.

Tests used:
BJ [1] = experiment: BJ-TERT fibroblast viability loss – cell-based, RAS-independent, luminescence, dose response (AID 1933); assay type: functional; details: Homo sapiens
BJ [2] = experiment: cells; assay type: functional, cell-based; details: Homo sapiens
BJ [3] = experiment: BJ-TERT-LT-ST fibroblast viability loss – cell-based, RAS-independent, luminescence, dose response (AID 1935); assay type: functional; details: Homo sapiens;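 note: BJ fibroblasts immortalized with TERT plus LT and ST oncogenes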
[4] = DRD fibroblast viability loss – cell-based, non-viral oncogenic, luminescence, dose response (AID 1934); assay type: functional; details: Homo sapiens
[5] = molecular target: T1, Polyadenylate-binding protein 1 (Homo sapiens, UniProt P11940); experiment: MLLE binding blockers, Cy5 peptide tracer – biochemical, fluorescence polarization, Cy5-PAM2 peptide, secondary, miRNA deadenylation inhibitor project, dose response (AID 602260); assay type: functional; details: read-out: IC50_Mean
T1 sequence (P11940 whole entry, the tested form may be a part): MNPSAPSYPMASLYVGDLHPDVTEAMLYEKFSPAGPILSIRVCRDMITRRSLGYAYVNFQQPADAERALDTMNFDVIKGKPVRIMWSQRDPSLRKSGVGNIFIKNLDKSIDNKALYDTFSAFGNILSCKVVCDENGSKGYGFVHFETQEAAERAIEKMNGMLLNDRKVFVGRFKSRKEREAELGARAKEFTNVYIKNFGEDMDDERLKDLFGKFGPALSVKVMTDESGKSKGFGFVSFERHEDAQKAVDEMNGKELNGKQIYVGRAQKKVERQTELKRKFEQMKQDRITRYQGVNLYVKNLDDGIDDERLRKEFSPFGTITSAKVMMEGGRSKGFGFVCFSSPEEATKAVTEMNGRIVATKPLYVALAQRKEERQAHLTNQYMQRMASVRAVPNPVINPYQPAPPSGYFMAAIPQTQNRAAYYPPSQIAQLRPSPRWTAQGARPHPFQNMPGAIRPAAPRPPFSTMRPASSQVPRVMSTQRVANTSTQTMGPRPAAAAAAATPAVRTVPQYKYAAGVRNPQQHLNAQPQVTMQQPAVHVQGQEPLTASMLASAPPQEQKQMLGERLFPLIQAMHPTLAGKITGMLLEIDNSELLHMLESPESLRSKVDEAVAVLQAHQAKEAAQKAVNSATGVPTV

[6] = molecular target: T1, Polyadenylate-binding protein 1; experiment: MLLE domain peptide-binding blockers, IC50 – biochemical, fluorescence polarization, FITC-PAM2 peptide, dose response (AID 602259); assay type: functional; details: read-out: IC50_Mean
cells [7] = assay type: functional, cell-based
cells [8] = assay type: functional, cell-based; remark: listed apart in the source
[9] = molecular target: FAD-linked sulfhydryl oxidase ALR (Homo sapiens, UniProt P55789); experiment: ALR-catalysed DTT oxidation blockers – biochemical, H2O2 detection, luminescence, cherry-pick, dose response (AID 493248)
Sequence of FAD-linked sulfhydryl oxidase ALR (P55789 whole entry): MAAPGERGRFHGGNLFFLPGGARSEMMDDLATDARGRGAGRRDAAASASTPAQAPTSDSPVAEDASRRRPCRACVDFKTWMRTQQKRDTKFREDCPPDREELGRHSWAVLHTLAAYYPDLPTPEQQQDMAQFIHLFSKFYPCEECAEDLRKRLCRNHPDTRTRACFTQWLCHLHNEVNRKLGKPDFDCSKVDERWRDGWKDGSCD

[10] = THP-1 cell cytotoxicity, dose response, cytotoxicity control for non-replicating M. tuberculosis project (AID 489025); assay type: functional
Fatty acid synthase [11] = molecular target: T2, Fatty acid synthase (Homo sapiens, UniProt P49327); experiment: inhibition of human FAS-TE enzyme activity – biochemical, endpoint fluorescence intensity, uHTS hits, dose response (AID 624327); assay type: functional;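 note: fluorescence from hydrolysis of an O-methyl fluorescein acyl ester substrate by the enzyme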
T2 sequence (P49327 whole entry): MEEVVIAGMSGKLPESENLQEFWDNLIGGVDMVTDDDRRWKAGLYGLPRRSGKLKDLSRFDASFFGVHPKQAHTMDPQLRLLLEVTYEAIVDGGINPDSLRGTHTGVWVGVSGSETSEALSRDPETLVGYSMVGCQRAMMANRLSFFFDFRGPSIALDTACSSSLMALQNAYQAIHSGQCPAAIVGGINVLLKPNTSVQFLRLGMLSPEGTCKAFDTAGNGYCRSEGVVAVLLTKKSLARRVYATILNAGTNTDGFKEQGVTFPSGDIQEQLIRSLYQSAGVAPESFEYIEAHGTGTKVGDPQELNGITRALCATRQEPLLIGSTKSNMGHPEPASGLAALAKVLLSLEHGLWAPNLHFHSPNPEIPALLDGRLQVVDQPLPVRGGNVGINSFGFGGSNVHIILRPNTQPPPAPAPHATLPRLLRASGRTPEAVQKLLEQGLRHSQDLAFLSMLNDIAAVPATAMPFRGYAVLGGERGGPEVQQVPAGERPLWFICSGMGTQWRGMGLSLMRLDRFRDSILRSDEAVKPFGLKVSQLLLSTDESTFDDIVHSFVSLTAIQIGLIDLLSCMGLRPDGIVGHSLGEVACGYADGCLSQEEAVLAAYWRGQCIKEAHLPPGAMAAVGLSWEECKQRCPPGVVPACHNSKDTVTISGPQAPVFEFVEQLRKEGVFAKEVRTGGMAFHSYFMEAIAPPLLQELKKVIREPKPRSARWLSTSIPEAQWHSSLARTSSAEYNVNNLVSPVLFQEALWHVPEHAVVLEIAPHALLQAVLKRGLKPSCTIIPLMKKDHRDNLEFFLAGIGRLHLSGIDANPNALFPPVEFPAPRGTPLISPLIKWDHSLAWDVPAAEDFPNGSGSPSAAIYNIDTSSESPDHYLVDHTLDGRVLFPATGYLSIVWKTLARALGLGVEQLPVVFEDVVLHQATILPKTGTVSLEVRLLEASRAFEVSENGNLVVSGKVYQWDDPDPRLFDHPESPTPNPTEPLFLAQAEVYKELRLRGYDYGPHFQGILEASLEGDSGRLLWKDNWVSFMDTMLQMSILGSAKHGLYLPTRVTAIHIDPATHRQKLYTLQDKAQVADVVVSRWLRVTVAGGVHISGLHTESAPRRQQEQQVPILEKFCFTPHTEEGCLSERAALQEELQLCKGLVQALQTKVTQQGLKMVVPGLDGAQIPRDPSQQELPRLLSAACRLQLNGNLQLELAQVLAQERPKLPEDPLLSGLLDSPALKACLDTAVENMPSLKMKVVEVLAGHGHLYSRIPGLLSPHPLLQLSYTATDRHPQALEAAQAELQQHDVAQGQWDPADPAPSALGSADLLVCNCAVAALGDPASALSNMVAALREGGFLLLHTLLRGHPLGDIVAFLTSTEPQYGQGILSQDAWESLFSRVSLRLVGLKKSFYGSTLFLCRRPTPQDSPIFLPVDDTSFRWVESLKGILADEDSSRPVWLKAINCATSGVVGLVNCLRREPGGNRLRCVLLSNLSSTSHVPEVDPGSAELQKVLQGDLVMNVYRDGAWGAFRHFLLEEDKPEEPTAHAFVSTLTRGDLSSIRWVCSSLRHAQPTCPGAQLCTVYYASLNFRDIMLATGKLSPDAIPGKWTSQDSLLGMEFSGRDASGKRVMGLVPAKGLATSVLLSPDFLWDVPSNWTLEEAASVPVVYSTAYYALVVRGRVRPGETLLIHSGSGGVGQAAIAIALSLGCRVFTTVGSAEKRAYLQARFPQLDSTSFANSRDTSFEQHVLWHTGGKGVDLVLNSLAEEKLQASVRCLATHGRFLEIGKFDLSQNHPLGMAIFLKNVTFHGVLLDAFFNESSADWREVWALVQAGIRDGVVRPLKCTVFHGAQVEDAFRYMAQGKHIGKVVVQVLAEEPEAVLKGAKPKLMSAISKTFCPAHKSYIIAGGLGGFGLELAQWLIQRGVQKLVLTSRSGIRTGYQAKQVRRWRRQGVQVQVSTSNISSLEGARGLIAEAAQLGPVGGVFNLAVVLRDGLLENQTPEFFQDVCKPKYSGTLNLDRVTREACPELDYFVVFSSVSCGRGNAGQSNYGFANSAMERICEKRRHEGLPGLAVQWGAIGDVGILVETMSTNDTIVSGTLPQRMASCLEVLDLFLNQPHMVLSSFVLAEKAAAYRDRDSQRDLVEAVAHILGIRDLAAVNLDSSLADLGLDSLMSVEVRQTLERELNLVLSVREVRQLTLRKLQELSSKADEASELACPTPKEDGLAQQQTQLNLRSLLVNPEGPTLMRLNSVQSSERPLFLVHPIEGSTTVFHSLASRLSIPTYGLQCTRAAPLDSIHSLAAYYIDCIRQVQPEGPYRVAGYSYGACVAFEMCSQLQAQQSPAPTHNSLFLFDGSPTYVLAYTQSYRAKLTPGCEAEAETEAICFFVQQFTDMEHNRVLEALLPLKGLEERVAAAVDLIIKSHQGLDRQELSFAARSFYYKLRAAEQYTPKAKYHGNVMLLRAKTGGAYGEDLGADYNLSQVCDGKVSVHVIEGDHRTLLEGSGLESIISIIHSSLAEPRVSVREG

Streptokinase A = molecular target: T3, Streptokinase A (Streptococcus pyogenes serotype M1, UniProt P10520); experiment: viability-normalized secreted streptokinase activity reduction – plasminogen activation absorbance, OD405, dose response (AID 1914); assay type: functional, Streptococcus pyogenes M1 GAS;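 note: secreted streptokinase activity via plasminogen activation per viability signal from cell pellet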
T3 sequence (P10520 whole entry): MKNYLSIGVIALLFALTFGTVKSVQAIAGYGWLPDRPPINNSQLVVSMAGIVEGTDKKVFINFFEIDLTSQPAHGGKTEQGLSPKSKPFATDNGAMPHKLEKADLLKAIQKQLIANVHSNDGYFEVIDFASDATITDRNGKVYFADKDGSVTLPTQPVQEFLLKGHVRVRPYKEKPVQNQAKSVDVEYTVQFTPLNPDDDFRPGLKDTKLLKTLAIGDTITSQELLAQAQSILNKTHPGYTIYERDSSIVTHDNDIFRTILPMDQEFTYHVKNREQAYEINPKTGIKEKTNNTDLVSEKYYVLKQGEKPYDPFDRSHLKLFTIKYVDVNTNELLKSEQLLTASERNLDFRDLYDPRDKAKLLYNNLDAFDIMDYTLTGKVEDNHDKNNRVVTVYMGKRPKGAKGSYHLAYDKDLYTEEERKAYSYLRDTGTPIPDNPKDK

Streptococcus = experiment: GAS UMAA2166 growth inhibition – luminescence, BacTiterGlo, counter-screen for streptokinase expression inhibitor project, dose response (AID 1915); assay type: functional, organism-based;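 note: potency for reduction of bacterial viability or growth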
Fatty acid synthase [12] = molecular target: T2, Fatty acid synthase; experiment: inhibition of human FAS-TE enzyme activity – biochemical, kinetic fluorescence intensity, dose response (AID 624326); assay type: functional;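 note: rate of fluorescence rise from hydrolysis of a fluorogenic O-methyl fluorescein ester substrate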
[13] = system: Streptococcus sp. 'group A'; experiment: Streptococcus pyogenes SK(-)GAS viability under kanamycin – luminescence, BacTiterGlo, confirmation, counter-screen for streptokinase expression inhibitor project, dose response (AID 1900); assay type: functional, organism-based
Genome polyprotein = Genome polyprotein (dengue virus type 2, UniProt P29990); experiment: flavivirus cap methylation enzyme inhibition – biochemical, confirmation dose response, primary screen (AID 588689); assay type: functional
Sequence of Genome polyprotein (P29990 2492-3391 limits assumed): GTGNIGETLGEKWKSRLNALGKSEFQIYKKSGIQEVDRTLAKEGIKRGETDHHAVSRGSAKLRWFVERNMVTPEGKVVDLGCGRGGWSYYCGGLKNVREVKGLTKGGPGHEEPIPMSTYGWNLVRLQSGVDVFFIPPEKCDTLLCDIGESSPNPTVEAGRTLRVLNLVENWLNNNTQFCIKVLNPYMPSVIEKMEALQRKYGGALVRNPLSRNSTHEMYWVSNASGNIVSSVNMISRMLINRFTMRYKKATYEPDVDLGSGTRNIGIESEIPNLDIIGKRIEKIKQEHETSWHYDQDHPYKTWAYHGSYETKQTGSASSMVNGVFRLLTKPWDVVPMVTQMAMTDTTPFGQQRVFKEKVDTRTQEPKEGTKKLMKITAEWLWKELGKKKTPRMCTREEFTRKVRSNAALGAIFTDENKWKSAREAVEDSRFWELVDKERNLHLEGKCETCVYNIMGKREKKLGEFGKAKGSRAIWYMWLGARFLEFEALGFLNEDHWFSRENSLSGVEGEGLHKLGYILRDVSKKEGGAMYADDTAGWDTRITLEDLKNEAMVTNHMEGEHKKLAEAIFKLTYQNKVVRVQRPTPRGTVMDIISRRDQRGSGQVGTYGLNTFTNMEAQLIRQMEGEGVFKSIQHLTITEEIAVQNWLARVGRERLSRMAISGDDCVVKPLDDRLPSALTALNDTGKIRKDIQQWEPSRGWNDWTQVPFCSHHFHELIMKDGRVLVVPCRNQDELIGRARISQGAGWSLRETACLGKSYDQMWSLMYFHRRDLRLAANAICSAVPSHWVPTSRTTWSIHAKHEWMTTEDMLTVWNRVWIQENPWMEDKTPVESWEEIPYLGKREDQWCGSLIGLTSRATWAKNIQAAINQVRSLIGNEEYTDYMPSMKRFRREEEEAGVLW

[14] = blockers of bursicon-stimulated LGR2 cAMP reporter – cell-based, HEK293, CRE-luciferase reporter, cherry pick, set 2, dose response (AID 743343); assay type: functional;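 note: transfected cells were stimulated with diluted bursicon conditioned medium after compound addition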
[15] = blockade of melanocortin 4 receptor signaling – cell-based, plate reader, cherry pick, counter-screen for LGR2 antagonist project, dose response (AID 743444); assay type: functional;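 note: transfected HEK 293 cells stimulated with alpha-MSH peptide; potency of inhibitors of the alpha-MSH evoked signal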
Nonstructural protein 1 = Nonstructural protein 1 (Influenza A virus, UniProt Q194T2); assay type: functional, Influenza A virus (A/California/07/2009(H1N1))
Sequence of Nonstructural protein 1 (Q194T2 whole entry): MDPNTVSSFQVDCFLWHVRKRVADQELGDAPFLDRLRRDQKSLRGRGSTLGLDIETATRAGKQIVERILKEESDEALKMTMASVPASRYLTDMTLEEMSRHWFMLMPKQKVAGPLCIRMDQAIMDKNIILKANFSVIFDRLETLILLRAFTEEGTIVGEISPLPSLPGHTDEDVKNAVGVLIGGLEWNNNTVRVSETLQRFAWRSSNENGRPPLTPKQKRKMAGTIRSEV

[16] = A549 cell cytotoxicity, dose response, cytotoxicity control, plate reader, cherry-pick, antagonist series (AID 743412); assay type: functional, cell-based

CCCN1C(=O)/C(=C\C=C2/Sc3ccccc3N2CC)SC1=S
EC50 (BJ [1]): > 150 µM (not active)
EC50 (BJ [2]): > 150 µM (not active)
EC50 (BJ [3]): > 150 µM (inconclusive)
EC50 [4]: > 150 µM (not active)

COCCN1CN(S(=O)(=O)c2ccccc2)c2nc3ccccc3nc21
IC50 [5]: > 66 µM (inactive)
IC50 [6]: 55.4 µM (inactive)

CCOc1ccccc1CN1CCN(S(C)(=O)=O)CC1
EC50 (cells [7]): > 350 µM (not active)
EC50 (cells [8]): > 350 µM (not active)

Cc1ccc(NC2CCCN(C(=O)c3ccnc(Cl)c3)C2)cc1C (stereo unspecified)
AC50 [9]: 3.32 µM (active)

CCOC(=O)N1CCC(NS(=O)(=O)c2cc3c(cc2Cl)NC(=O)CO3)CC1
CC50 [10]: 33.4 µM (active)

Cn1c(S)nnc1CNS(=O)(=O)c1ccc(Br)cc1
AC50 [9]: 4.95 µM (active)

CCOC(=O)c1ccc(NC(=O)c2[nH]cnc2C(=O)N[C@@H](CCCCNC(=O)OC(C)(C)C)C(=O)OC(C)(C)C)cc1
IC50 (Fatty acid synthase [11]): 0.539 µM (active)
EC50 (Streptokinase A): > 150 µM (not active)
EC50 (Streptococcus): 55.6 µM (active)
IC50 (Fatty acid synthase [12]): 0.463 µM (active)
EC50 [13]: 6.84 µM (active)

CC(NC(=O)c1ccc(N(C)C)cc1)C(c1cccs1)N1CCN(C)CC1 (stereo unspecified)
AC50 [9]: 1.24 µM (active)

S=C(Nc1ccc(Cl)cc1)Nc1ccc2c[nH]nc2c1
EC50 (cells [7]): > 350 µM (not active)
EC50 (cells [8]): > 350 µM (not active)

CCc1n[nH]c(C(=O)N2CCCC(Nc3ccc(C(C)C)cc3)C2)c1C (stereo unspecified)
AC50 [9]: 3.61 µM (active)

Cc1ccc([C@@H]2CC=C(C(=O)O)[C@H](c3ccc(Br)cc3)N2S(=O)(=O)c2ccccc2C)cc1
IC50 (Genome polyprotein): 34 µM (active)

Cc1csc(NC(=O)c2ccc(OCC3CCCO3)cc2)n1 (stereo unspecified)
AC50 [14]: 2.55 µM (active)
AC50 [15]: 1.96 µM (active)

COc1ccc(N2CCN(CCNC(=O)Nc3ccc([N+](=O)[O-])cc3OC)CC2)cc1
IC50 (Nonstructural protein 1): > 100 µM (active)
AC50 [9]: 2.24 µM (active)

O=C(O)c1ccccc1C(=O)c1ccc(N2CCOCC2)c([N+](=O)[O-])c1
EC50 (BJ [1]): > 150 µM (not active)
EC50 (BJ [2]): > 150 µM (not active)
EC50 (BJ [3]): > 150 µM (not active)
EC50 [4]: > 150 µM (not active)

N#CCCN(C(=S)NC(=O)c1ccco1)c1ccccc1F
IC50 [5]: > 66 µM (inactive)
IC50 [6]: > 66 µM (inactive)

O=C(CSc1ncnc2sc3c(c12)CCCC3)N1CCC(c2noc3ccc(F)cc23)CC1
EC50 (BJ [1]): 30.7 µM (active)
EC50 (BJ [2]): > 150 µM (not active)
EC50 (BJ [3]): > 150 µM (not active)
EC50 [4]: > 150 µM (not active)

COc1ccc(Br)cc1/C=C/C(=O)NC(=S)Nc1ccc(Cl)c(C(=O)O)c1
IC50 (Genome polyprotein): 46.9 µM (active)
EC50 (Streptococcus): 5.98 µM (active)
EC50 [13]: 56.5 µM (active)

CC(NC(=O)COC(=O)c1cc([N+](=O)[O-])ccc1N1CCOCC1)c1ccc(F)cc1 (stereo unspecified)
IC50 (Fatty acid synthase [11]): 1.95 µM (active)
IC50 (Fatty acid synthase [12]): 1.48 µM (active)

CC(=O)c1cccc(NC(=S)NC(=O)c2ccc(Br)cc2)c1
IC50 [5]: > 66 µM (inactive)
IC50 [6]: > 66 µM (inactive)

CN(C)S(=O)(=O)c1cccc(NC(=O)COc2ccccc2C(=O)Nc2ccccc2)c1
AC50 [16]: 30.6 µM (active)
AC50 [14]: 20.1 µM (active)
AC50 [15]: 22.9 µM (active)

COc1ccc(S(=O)(=O)Nc2nc3ccccc3nc2Nc2cccc(C(=O)O)c2)cc1
IC50 (Genome polyprotein): 34.5 µM (active)
